Several values for one entry are separate records, joined by “and”; a condition that tells them apart may be missing. Equal values may be shown once. Toxic doses and inconclusive results are not listed. Cut-off read from the data, not from the text of the source: active = T/C of 150% or more; inactive = T/C below 125%.
Test system: L1210 leukemia ip in BDF1 mice, survival T/C
Experiment: NCI In Vivo Anticancer Drug Screen. Data for tumor model L1210 Leukemia (intraperitoneal) in B6D2F1 (BDF1) mice
Conditions: endpoint: mean survival time, higher = longer survival
Procedure, shortened: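 Mice bearing the transplanted tumor received compound or vehicle. Survival of the treated group was divided by that of the vehicle-treated control group to give the ratio.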

[1] = dose: 100.0 mg/kg/injection, schedule: Q01DX001 (ip), vehicle: saline
[2] = dose: 200.0 mg/kg/injection, schedule: Q01DX001 (ip), vehicle: saline
[3] = dose: 100.0 mg/kg/injection, schedule: Q01DX009 (ip), vehicle: saline with Tween-80
[4] = dose: 100.0 mg/kg/injection, schedule: Q04DX003 (ip), vehicle: saline with Tween-80
[5] = dose: 200.0 mg/kg/injection, schedule: Q01DX009 (ip), vehicle: saline with Tween-80
[6] = dose: 200.0 mg/kg/injection, schedule: Q04DX003 (ip), vehicle: saline with Tween-80
[7] = dose: 400.0 mg/kg/injection, schedule: Q04DX003 (ip), vehicle: saline with Tween-80
[8] = dose: 25.0 mg/kg/injection, schedule: Q01DX009 (ip), vehicle: Klucel (hydroxypropylcellulose) (HPC)
[9] = dose: 50.0 mg/kg/injection, schedule: Q01DX009 (ip), vehicle: Klucel (hydroxypropylcellulose) (HPC)
[10] = dose: 100.0 mg/kg/injection, schedule: Q01DX009 (ip), vehicle: Klucel (hydroxypropylcellulose) (HPC)
[11] = dose: 200.0 mg/kg/injection, schedule: Q01DX009 (ip), vehicle: Klucel (hydroxypropylcellulose) (HPC)
[12] = dose: 400.0 mg/kg/injection, schedule: Q01DX009 (ip), vehicle: Klucel (hydroxypropylcellulose) (HPC)
[13] = dose: 50.0 mg/kg/injection, schedule: Q01DX009 (ip), vehicle: saline with Tween-80
[14] = dose: 100.0 mg/kg/injection, schedule: Q04DX003 (ip), vehicle: Klucel (hydroxypropylcellulose) (HPC)
[15] = dose: 200.0 mg/kg/injection, schedule: Q04DX003 (ip), vehicle: Klucel (hydroxypropylcellulose) (HPC)
[16] = dose: 400.0 mg/kg/injection, schedule: Q04DX003 (ip), vehicle: Klucel (hydroxypropylcellulose) (HPC)
[17] = dose: 100.0 mg/kg/injection, schedule: Q04DX003 (ip), vehicle: other
[18] = dose: 200.0 mg/kg/injection, schedule: Q04DX003 (ip), vehicle: other
[19] = dose: 400.0 mg/kg/injection, schedule: Q04DX003 (ip), vehicle: other
[20] = dose: 100.0 mg/kg/injection, schedule: Q04DX003 (ip), vehicle: saline
[21] = dose: 200.0 mg/kg/injection, schedule: Q04DX003 (ip), vehicle: saline
[22] = dose: 400.0 mg/kg/injection, schedule: Q04DX003 (ip), vehicle: saline
[23] = dose: 100.0 mg/kg/injection, schedule: Q01DX009 (ip), vehicle: saline
[24] = dose: 200.0 mg/kg/injection, schedule: Q01DX009 (ip), vehicle: saline
[25] = dose: 400.0 mg/kg/injection, schedule: Q01DX009 (ip), vehicle: saline
[26] = dose: 100.0 mg/kg/injection, schedule: Q01DX001 (ip), vehicle: Klucel (hydroxypropylcellulose) (HPC)
[27] = dose: 200.0 mg/kg/injection, schedule: Q01DX001 (ip), vehicle: Klucel (hydroxypropylcellulose) (HPC)
[28] = dose: 400.0 mg/kg/injection, schedule: Q01DX001 (ip), vehicle: Klucel (hydroxypropylcellulose) (HPC)
[29] = dose: 100.0 mg/kg/injection, schedule: Q04DX002 (ip), vehicle: Klucel (hydroxypropylcellulose) (HPC)

Measured: T/C

Cc1ccc(C)c(N(c2ccccc2N)S(C)(=O)=O)c1
inactive: dose: 50.0 mg/kg/injection, schedule: Q01DX001 (ip), vehicle: saline 95 % of control | [1] 95 % of control | [2] 101 % of control | dose: 400.0 mg/kg/injection, schedule: Q01DX001 (ip), vehicle: saline 90 % of control

CC(=O)Oc1cccc(/C=C/C(=O)O)c1
inactive: [3] 91 % of control | [4] 98 % of control | [5] 91 % of control | [6] 102 % of control | dose: 400.0 mg/kg/injection, schedule: Q01DX009 (ip), vehicle: saline with Tween-80 90 % of control | [7] 91 % of control

O=N[O-].O=N[O-].[NH2-].[NH2-].[Pt+2]
inactive: dose: 12.5 mg/kg/injection, schedule: Q01DX009 (ip), vehicle: Klucel (hydroxypropylcellulose) (HPC) 103 % of control | [8] 106 % of control | [9] 106 % of control

OCC1OC(n2c3ccccc3c3ccccc32)C(O)C(O)C1O (stereo unspecified)
inactive: dose: 60.0 mg/kg/injection, schedule: Q04DX002 (ip), vehicle: DMSO 108 % of control | dose: 120.0 mg/kg/injection, schedule: Q04DX002 (ip), vehicle: DMSO 102 % of control

CC1CC(NC(=S)NC(=O)c2ccc(Cl)cc2Cl)CC(C)(C)C1 (stereo unspecified)
inactive: [10] 91 % of control | [11] 96 % of control | [12] 91 % of control

O=C(O)/C(=C(/Cc1ccccc1)C(=O)c1ccccc1)c1ccccc1
inactive: [13] 98 % of control | [3] 88 % of control | [5] 91 % of control

[C](#Cc1ccccc1)[Hg][C]#Cc1ccccc1
inactive: [14] 103 % of control | [15] 94 % of control | [16] 96 % of control

Cc1ccc(NC(=O)COc2ccc(Cl)cc2)cc1Cl
inactive: [10] 94 % of control | [14] 93 % of control | [11] 86 % of control | [15] 90 % of control | [12] 93 % of control | [16] 101 % of control

C[C@]1(O)CC[C@H]2[C@@H]3CCC4=CC(=O)CC[C@]4(C)[C@@]3(F)C(=O)C[C@@]21C
inactive: [10] 101 % of control | [17] 92 % of control | [11] 101 % of control | [18] 108 % of control | [12] 95 % of control | [19] 94 % of control

Clc1ccc(C=Nc2ccc3c(c2)Cc2ccccc2-3)cc1
inactive: [10] 90 % of control | [14] 96 % of control | [11] 93 % of control | [15] 102 % of control | [12] 92 % of control | [16] 91 % of control

Cc1cc(C)c(NC(=O)c2ccccc2F)cc1C
inactive: [10] 101 % of control | [11] 100 % of control | [12] 97 % of control

CCSc1ncnc2nc(C)[nH]c12
inactive: [1] 100 % of control | [2] 101 % of control

O=C(O)CCc1c2ccc(=O)cc-2oc2cc(O)ccc12
inactive: [14] 91 % of control | [15] 91 % of control | [16] 92 % of control

CC(C)C(NC(=O)CCNC(=O)OCc1ccccc1)C(=O)OCc1ccccc1 (stereo unspecified)
inactive: [4] 93 % of control | [6] 92 % of control | [7] 95 % of control

CCOC(=O)N(C)C1CCC1NC (stereo unspecified)
inactive: [20] 98 % of control | [21] 112 % of control | [22] 104 % of control

CC[N+]1(CC)CCOC(=O)C1
inactive: [23] 95 % of control | [20] 109 % of control | [24] 93 % of control | [21] 101 % of control | [25] 94 % of control | [22] 101 % of control

COC(=O)C1C(=O)C(C(=O)OC)C2C(C(=O)OC)C(=O)C(C(=O)OC)C12 (stereo unspecified)
inactive: [26] 104 % of control | [10] 93 % of control | [14] 97 % of control | [27] 101 % of control | [11] 95 % of control | [15] 96 % of control | [28] 103 % of control | [12] 98 % of control | [16] 102 % of control

COc1cc(OC)c(NC(=O)NCCCl)cc1Cl
inactive: [14] 104 % of control | [15] 106 % of control | [16] 97 % of control

COc1cc(/C=N\NC(=O)OC(C)(C)C)cc(OC)c1OC
inactive: [13] 95 % of control | [3] 97 % of control | [4] 87 % of control | [5] 97 % of control | [6] 91 % of control

CCOP(=O)(OCC)C1c2cc(Cl)ccc2-c2c(Cl)cc(Cl)cc21 (stereo unspecified)
inactive: dose: 15.0 mg/kg/injection, schedule: Q01DX001 (ip), vehicle: saline 103 % of control | dose: 30.0 mg/kg/injection, schedule: Q01DX001 (ip), vehicle: saline 98 % of control | dose: 60.0 mg/kg/injection, schedule: Q01DX001 (ip), vehicle: saline 103 % of control

CN(C)C1=NS(=O)(=O)N=C(N(C)c2ccccc2)O1
inactive: [26] 109 % of control | [14] 97 % of control | [27] 101 % of control | [15] 105 % of control | [28] 103 % of control | [16] 103 % of control

CSc1nnc(N)s1
inactive: [8] 91 % of control | [9] 94 % of control | [10] 94 % of control | [29] 94 % of control and 91 % of control | [11] 99 % of control | dose: 200.0 mg/kg/injection, schedule: Q04DX002 (ip), vehicle: Klucel (hydroxypropylcellulose) (HPC) 97 % of control and 98 % of control | [12] 98 % of control | dose: 400.0 mg/kg/injection, schedule: Q04DX002 (ip), vehicle: Klucel (hydroxypropylcellulose) (HPC) 103 % of control | dose: 800.0 mg/kg/injection, schedule: Q04DX002 (ip), vehicle: Klucel (hydroxypropylcellulose) (HPC) 87 % of control

CC(=O)OC1=C(Cl)C(=O)c2ccccc2C1=O
inactive: dose: 75.0 mg/kg/injection, schedule: Q01DX001 (ip), vehicle: other 89 % of control | dose: 150.0 mg/kg/injection, schedule: Q01DX001 (ip), vehicle: other 94 % of control

O=c1c(Cl)c(C(Cl)(Cl)Cl)[nH]c2ccccc12
inactive: dose: 25.0 mg/kg/injection, schedule: Q01DX001 (ip), vehicle: saline with Tween-80 104 % of control | dose: 50.0 mg/kg/injection, schedule: Q01DX001 (ip), vehicle: saline with Tween-80 106 % of control

Cc1cc2cc(C)c3cccc(C)c3c2c2c(C)cccc12
inactive: [10] 102 % of control | [17] 95 % of control | [11] 106 % of control | [18] 97 % of control | [12] 96 % of control | [19] 90 % of control

NC(=S)N/N=C/c1ccc(Cl)s1
inactive: dose: 25.0 mg/kg/injection, schedule: Q04DX002 (ip), vehicle: Klucel (hydroxypropylcellulose) (HPC) 95 % of control | dose: 50.0 mg/kg/injection, schedule: Q04DX002 (ip), vehicle: Klucel (hydroxypropylcellulose) (HPC) 95 % of control | [29] 98 % of control and 100 % of control

CC(=O)OCCC/C(=C\c1ccc(C)cc1)[N+](=O)[O-]
inactive: dose: 100.0 mg/kg/injection, schedule: Q01DX001 (ip), vehicle: carboxymethylcellulose (CMC) 88 % of control | dose: 200.0 mg/kg/injection, schedule: Q01DX001 (ip), vehicle: carboxymethylcellulose (CMC) 88 % of control | dose: 400.0 mg/kg/injection, schedule: Q01DX001 (ip), vehicle: carboxymethylcellulose (CMC) 88 % of control

CC1(C)COC(C)(C)C(=O)O1
inactive: [14] 106 % of control | [15] 97 % of control

CCN(CC)CCCC(C)Nc1cc(C)nc(/N=C(\N)Nc2ccc(Cl)c(Cl)c2)n1 (stereo unspecified)
inactive: [8] 96 % of control | [9] 94 % of control | [26] 92 % of control

COc1ccc(CC(C(=O)O)C(Cc2ccc(OC)c(OC)c2)C(=O)O)cc1OC (stereo unspecified)
inactive: [9] 94 % of control | [10] 104 % of control | [20] 118 % of control | [11] 95 % of control | [21] 114 % of control | [12] 91 % of control | [22] 98 % of control

O=S1(=O)CCCC1
inactive: [23] 104 % of control | [20] 104 % of control | [24] 98 % of control | [21] 100 % of control | [25] 96 % of control | [22] 98 % of control
